According to BindingDB's records for doi:10.1016/j.ejmech.2018.08.085 (China Pharmaceutical University, 2018):

Assay: Binding affinity to VDR in scrambled siRNA-transfected human MCF7 cells assessed as cell growth inhibition by measuring reduction in BrdU incorporation after 16 hrs by ELISA

For `CCN(CC)CCNC(=O)c1ccc(C(CC)(CC)c2ccc(OCSC)c(C)c2)n1CC`, which IC50 is on record?
Its IC50 is 970 nM.

With `CCn1c(C(=O)N[C@@H](C)CO)ccc1C(CC)(CC)c1ccc(OCC(O)C(C)(C)C)c(C)c1` (stereo partly drawn) as the molecule, how does the IC50 read?
The IC50 was 4300 nM.

With `CCN(CC)CCNC(=O)c1cc(C(CC)(CC)c2ccc(OCS(=O)(=O)c3ccccc3)c(C)c2)cn1CC` as the molecule, how does the IC50 read?
The IC50 was 650 nM.
